The assay addresses T1, PI3Kγ (Homo sapiens, UniProt P48736).
T1 construct: HA; made in house; host or cells: Spodoptera frugiperda (Sf9) cells, baculovirus co-infection
In words: PI3Kγ In Vitro Kinase Assay. It counts as biochemical. Particulars: purified recombinant p101/p110 γ protein with G protein β1/γ2 subunits; 20 μM ATP, 25 μM PIP2; 20 minutes at room temperature; radioactive PIP3 readout. The protocol:
Spodtera frugiperda cells, grown in ESF921 media, were coinfected with baculovirus expressing a glu-tagged p101 and baculovirus expressing an HA-tagged p110γ, at a 3:1 ratio of p101 baculovirus to p110γ baculovirus. Sf9 cells were grown to 1×10^7 total cells/mL in 10 L bioreactors and harvested 48-72 hours post infection. Samples of infected cells were then tested for expression of p101/p110 γ PI3 kinase by immunoprecipitation and Western Blot analysis methods (see below). To purify PI3Kγ, 4 volumes of room temperature hypotonic lysis buffer (1 mM MgCl2, 1 mM DTT, 5 mM EGTA, 1 mM Pefabloc, 0.5 μM aprotinin, 5 μM leupeptin, 2 μM pepstatin, 5 μM E64, pH 8) per gram of cell paste, was poured onto frozen cell pellets with stirring, then lysed in a nitrogen “bomb” at 400 psi (599HC […], Parr Instrument Co, Moline, Ill.). NaCl was added to 150 mM, and sodium cholate was added to 1% and mixed for another 45 minutes. The lysates were clarified by centrifugation for 25 minutes at 14,000 rpm. The lysates were then loaded over anti-glu-linked Protein-G Sepaharose beads (Covance Research Products, Richmond, Calif.) using 20 mL resin/50 g cell paste. The column was washed with 15 volumes of wash buffer (1 mM DTT, 0.2 mM EGTA, 1 mM Pefabloc, 0.5 μM aprotinin, 5 μM leupeptin, 2 μM pepstatin, 5 μM E64, 150 mM NaCl, 1% sodium cholate, pH 8). PI3Kγ was eluted with 6 column volumes of wash buffer that contain 100 μg/mL of a peptide that competes for binding of the glu tag. The column fractions with the eluted protein (determined by taking OD280 readings) were collected and dialyzed in 0.2 mM EGTA, 1 mM DTT, 1 mM Pefabloc, 5 μM leupeptin, 0.5% sodium cholate, 150 mM NaCl, and 50% glycerol, pH 8. The fractions were stored at -80° C. until further use. Spodtera frugiperda cells were coinfected with baculovirus expressing a glu-tagged G protein β1 and baculovirus expressing a G protein β2, at a 1:1 ratio of glu-tagged G protein β1 baculovirus to G protein β2 baculovirus. Sf9 cells are grown in 10 L bioreactors and harvested 48-72 hours post infection. Samples of infected cells were tested for G protein β1/β2 expression by Western Blot analysis, as described below. Cell lysates were homogenized and loaded onto a column of glu-tagged beads as in Biological Example 1 and competed off the column with a glu peptide and processed as described in Biological Example 1. The inhibitory properties of the compounds in Table 1 were assayed in an in vitro PI3K assay. In a 96-well polypropylene plate, each well was spotted with 2 μL of 50 times the desired final concentration of compound in DMSO. Purified recombinant p101/p110 γ protein (0.03 μg; 2.7 nM) and G protein β1/γ2 subunits (0.09 μg; 57.7 nM) for each reaction was combined in the assay buffer (30 mM HEPES, 100 mM NaCl, 1 mM EGTA, and 1 mM DTT). ATP and [γ-^32P-ATP] (0.09 μCi) were added to this mixture so that the final ATP concentration in the reaction was 20 μM. Lipid micelles were formed by sonicating phosphatidylinositol-4,5-diphosphate (PIP2), phosphatidylethanolamine (PE), and Na-cholate in the assay buffer for 10 minutes, adding MgCl2 and incubating on ice for 20 minutes, for final concentrations of 25 μM PIP2, 300 μM PE, 0.02% Na-cholate, and 10 mM MgCl2 in the reaction. The reactions were started by adding equal volumes lipid and enzyme mixture in a total volume of 50 μL, allowed to run for 20 minutes at room temperature, and stopped with 100 μL 75 mM H3PO4. The lipid product was transferred to a glass fiber filter plate and washed with 75 mM H3PO4 several times. The presence of radioactive lipid product (PIP3) was measured by adding Wallac Optiphase mix to each well and counting in a Wallac 1450 Trilux plate reader (PerkinElmer Life Sciences Inc., Boston, Mass. 02118). The IC50 for each compound tested is reported in μM in Table 1: […]
T1 sequence (P48736 whole entry, species assumed): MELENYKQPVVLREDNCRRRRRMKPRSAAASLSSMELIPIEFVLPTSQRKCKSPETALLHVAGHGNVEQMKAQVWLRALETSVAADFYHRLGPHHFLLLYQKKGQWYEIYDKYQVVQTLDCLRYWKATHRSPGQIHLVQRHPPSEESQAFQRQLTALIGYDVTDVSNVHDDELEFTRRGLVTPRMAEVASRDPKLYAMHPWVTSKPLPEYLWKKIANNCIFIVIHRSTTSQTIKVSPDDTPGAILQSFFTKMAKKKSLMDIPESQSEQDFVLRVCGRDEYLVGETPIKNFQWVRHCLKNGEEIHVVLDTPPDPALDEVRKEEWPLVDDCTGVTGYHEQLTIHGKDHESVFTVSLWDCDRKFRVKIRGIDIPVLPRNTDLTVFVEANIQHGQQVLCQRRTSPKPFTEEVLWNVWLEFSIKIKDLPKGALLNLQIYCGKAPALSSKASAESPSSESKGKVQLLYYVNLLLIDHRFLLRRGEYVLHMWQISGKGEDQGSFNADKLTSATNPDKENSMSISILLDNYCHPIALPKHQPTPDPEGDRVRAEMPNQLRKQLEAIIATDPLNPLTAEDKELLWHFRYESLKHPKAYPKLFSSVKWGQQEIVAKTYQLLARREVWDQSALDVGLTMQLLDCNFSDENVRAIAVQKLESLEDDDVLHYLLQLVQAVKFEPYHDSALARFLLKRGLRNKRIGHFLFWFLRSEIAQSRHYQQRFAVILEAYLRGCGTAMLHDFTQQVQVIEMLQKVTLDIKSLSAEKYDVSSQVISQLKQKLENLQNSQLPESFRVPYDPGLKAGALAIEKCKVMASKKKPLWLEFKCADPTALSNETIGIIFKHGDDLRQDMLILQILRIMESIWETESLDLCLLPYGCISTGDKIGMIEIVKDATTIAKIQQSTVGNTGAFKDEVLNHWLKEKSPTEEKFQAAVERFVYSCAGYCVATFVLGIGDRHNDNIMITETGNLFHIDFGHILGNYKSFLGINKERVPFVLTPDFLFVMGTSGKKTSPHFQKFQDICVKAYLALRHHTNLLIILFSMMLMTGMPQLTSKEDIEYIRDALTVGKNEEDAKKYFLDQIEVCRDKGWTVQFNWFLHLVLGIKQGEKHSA
T1 sequence (Q8WYR1 whole entry partner, species assumed): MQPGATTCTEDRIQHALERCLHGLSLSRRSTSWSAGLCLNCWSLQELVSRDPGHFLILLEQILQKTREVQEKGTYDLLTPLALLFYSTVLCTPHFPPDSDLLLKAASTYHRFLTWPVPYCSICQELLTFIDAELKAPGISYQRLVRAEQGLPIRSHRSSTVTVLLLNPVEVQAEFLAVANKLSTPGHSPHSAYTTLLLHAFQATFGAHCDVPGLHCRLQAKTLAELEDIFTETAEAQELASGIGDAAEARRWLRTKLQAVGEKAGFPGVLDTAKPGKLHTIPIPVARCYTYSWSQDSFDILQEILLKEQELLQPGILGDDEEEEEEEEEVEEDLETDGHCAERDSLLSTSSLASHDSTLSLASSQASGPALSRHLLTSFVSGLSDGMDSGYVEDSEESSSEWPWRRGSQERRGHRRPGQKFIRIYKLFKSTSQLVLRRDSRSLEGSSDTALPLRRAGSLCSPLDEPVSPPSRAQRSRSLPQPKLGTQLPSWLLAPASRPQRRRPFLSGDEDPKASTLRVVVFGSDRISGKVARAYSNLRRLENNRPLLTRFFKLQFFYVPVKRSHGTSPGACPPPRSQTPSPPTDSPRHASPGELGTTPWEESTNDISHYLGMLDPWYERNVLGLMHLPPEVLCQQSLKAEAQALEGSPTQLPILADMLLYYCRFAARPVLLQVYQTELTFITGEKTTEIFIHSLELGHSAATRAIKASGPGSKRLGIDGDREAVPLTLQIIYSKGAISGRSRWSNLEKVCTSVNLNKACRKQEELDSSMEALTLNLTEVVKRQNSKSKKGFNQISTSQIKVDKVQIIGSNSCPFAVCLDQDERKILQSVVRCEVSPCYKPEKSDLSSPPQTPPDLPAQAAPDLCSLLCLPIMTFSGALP
With “3-(3,5-Dimethyl-cyclohexloxy)-5,6-dimethoxy-benzo[b]thiophene-2-carboxylic acid (1H-tetrazol-5-yl)-amide [Example 34]”, the IC50 is 0.032 µM.

Regarding “3-Cycloheptylmethoxy-5,6-dimethoxy-benzo[b]thiophene-2-carboxylic acid (1H-tetrazol-5-yl)-amide [Example 42]”, the half-maximal inhibitory concentration (IC50) is 0.036 µM.

“5,6-Dimethoxy-3-(3-methyl-oxetan-3-ylmethylmethoxy)-benzo[b]thiophene-2-carboxylic acid (1H-tetrazol-5-yl)-amide [Example 25]”: the IC50 was 0.445 µM.

With `COc1cc2c(OC3CCCC(C)C3)c(C(=O)Nc3nn[nH]n3)sc2cc1C` (single isomer, unassigned) [Example 2, 5-Methoxy-6-methyl-3-(3-methyl-cyclohexyloxy)-benzo[b]thiophene-2-carboxylic acid (2H-tetrazol-5-yl)-amide], the IC50 turned out to be 0.024 µM.

In the case of `COc1cc2c(OC3CCCC(C)C3)c(C(=O)Nc3nn[nH]n3)sc2cc1C` (single isomer, unassigned) [Example 7, 5-Methoxy-6-methyl-3-(3-methyl-cyclohexyloxy)-benzo[b]thiophene-2-carboxylic acid (2H-tetrazol-5-yl)-amide], the IC50 amounted to 0.003 µM.

For the compound `COc1cc2c(OC3CCOCC3)c(C(=O)Nc3nn[nH]n3)sc2cc1C` [Example 1, 5-Methoxy-6-methyl-3-(tetrahydro-pyran-4-yloxy)-benzo[b]thiophene-2-carboxylic acid (2H-tetrazol-5-yl)-amide], the IC50 was found to be 0.024 µM.

With `COc1cc2c(OC3CC(C)(C)CC(C)(C)C3)c(C(=O)Nc3nn[nH]n3)sc2cc1C` [Example 3, 5-Methoxy-6-methyl-3-(3,3,5,5-tetramethyl-cyclohexyloxy)-benzo[b]thiophene-2-carboxylic acid (2H-tetrazol-5-yl)-amide], the IC50 turned out to be 0.165 µM.

`COc1cc2c(OC3CC(C)CC(C)(C)C3)c(C(=O)Nc3nn[nH]n3)sc2cc1C` (centres unmarked) [Example 4, 5-Methoxy-6-methyl-3-(3,3,5-trimethyl-cyclohexyloxy)-benzo[b]thiophene-2-carboxylic acid (2H-tetrazol-5-yl)-amide]: the IC50 came to 0.009 µM.

`COc1cc2c(OC3CCCC(C)(C)C3)c(C(=O)Nc3nn[nH]n3)sc2cc1C` (centres unmarked) [Example 5, 3-(3,3-Dimethyl-cyclohexyloxy)-5-methoxy-6-methyl-benzo[b]thiophene-2-carboxylic acid (2H-tetrazol-5-yl)-amide]: the IC50 turned out to be 0.008 µM.

Consider `COc1cc2c(OC3CCCCC3)c(C(=O)Nc3nn[nH]n3)sc2cc1C` [Example 6, 3-Cyclohexyloxy-5-methoxy-6-methyl-benzo[b]thiophene-2-carboxylic acid (2H-tetrazol-5-yl)-amide], for which the half-inhibitory concentration (IC50) turned out to be 0.007 µM.

Regarding `COc1cc2c(OC3CCCCCC3)c(C(=O)Nc3nn[nH]n3)sc2cc1C` [Example 8, 3-Cycloheptyloxy-5-methoxy-6-methyl-benzo[b]thiophene-2-carboxylic acid (2H-tetrazol-5-yl)-amide], the IC50 is 0.005 µM.

`COc1cc2c(OC3CCN(Cc4ccccc4)CC3)c(C(=O)Nc3nn[nH]n3)sc2cc1C` [Example 9, 3-(1-Benzyl-piperidin-4-yloxy)-5-methoxy-6-methyl-benzo[b]thiophene-2-carboxylic acid (2H-tetrazol-5-yl)-amide]: the IC50 was 0.25 µM.

Consider `COc1cc2c(OC3CCCNC3)c(C(=O)Nc3nn[nH]n3)sc2cc1C` (centres unmarked) [Example 10], for which the IC50 was determined as 1.29 µM.

As for `COc1cc2c(OC3CCN(C4CCCCC4)CC3)c(C(=O)Nc3nn[nH]n3)sc2cc1C` [Example 11, 3-(1-Cyclohexyl-piperdin-4-yloxy)-5-methoxy-6-methyl-benzo[b]thiophene-2-carboxylic acid (2H-tetrazol-5-yl-amide)], the IC50 amounted to 0.965 µM.

Consider `COc1cc2c(OC3CCNCC3)c(C(=O)Nc3nn[nH]n3)sc2cc1C` [Example 12, 5-Methoxy-6-methyl-3-(piperidiny-4yloxy)-benzo[b]thiophene-2-carboxylic acid (2H-tetrazol-5-yl)amide], for which the IC50 stood at 0.715 µM.

Take `COc1cc2c(OC3CCCN(C(C)=O)C3)c(C(=O)Nc3nn[nH]n3)sc2cc1C` (centres unmarked) [Example 13, 3-(1-Acetyl-piperidin-3-yloxy)-5-methyoxy-6-methyl-benzo[b]thiophene-2-carboxylic acid (2H-tetrazol-5-yl)-amide]: the IC50 came to 0.072 µM.

In the case of `COc1cc2c(OC3CCCN(C(=O)OC(C)(C)C)C3)c(C(=O)Nc3nn[nH]n3)sc2cc1C` (centres unmarked) [Example 14], the IC50 was found to be 0.053 µM.

Turning to `COc1cc2c(OCCCC3CCCCC3)c(C(=O)Nc3nn[nH]n3)sc2cc1C` [Example 15, 3-(3-Cyclohexyl-propoxy)-5-Methoxy-6-methyl-benzo[b}thiophene-2-carboxylic acid (2H-tetrazol-5-yl)amide], the IC50 turned out to be 0.028 µM.

For `COc1cc2c(OC3CCN(C(C)=O)CC3)c(C(=O)Nc3nn[nH]n3)sc2cc1C` [Example 16, 3-(1-Acetyl-piperidin-4-yloxy)-5-methoxy-6-methyl-benzo[b]thiophene-2-carboxylic acid (2H-tetrazol-5-yl)-amide], the IC50 worked out at 0.025 µM.

In the case of `COc1cc2c(OC3CCN(C(=O)OC(C)(C)C)CC3)c(C(=O)Nc3nn[nH]n3)sc2cc1C` [Example 17, 4-[5-Methoxy-6-methyl-2-(2H-tetrazol-5-ylcarbamoyl)-benzo[b]thiophene-3-yloxy]-piperidine-1-carboxylic acid tert-butyl ester], the IC50 came out at 0.024 µM.

With `COc1cc2c(OCC3(C)CC3)c(C(=O)Nc3nn[nH]n3)sc2cc1C` [Example 18, 5-Methoxy-6-methyl-3-(1-methyl-cyclopropylmethoxy)-benzo[b]thiophene-2-carboxylic acid (2H-tetrazol-5-yl)-amide], the IC50 came out at 0.02 µM.

Regarding `COc1cc2sc(C(=O)Nc3nnn[nH]3)c(OCCC3CC3)c2cc1OC` [Example 19, 3-(2-Cyclopropyl-ethoxy)-5,6-dimethoxy-benzo[b]thiophene-2-carboxylic acid (1H-tetrazol-5-yl)-amide], the half-inhibitory concentration (IC50) amounted to 0.371 µM.

Turning to `COc1cc2sc(C(=O)Nc3nn[nH]n3)c(OCC3CC3(Cl)Cl)c2cc1OC` (centres unmarked) [Example 20, 3-(2,2-Dichloro-cyclopropylmethoxy)-5,6-dimethoxy-benzo[b]thiophene-2-carboxylic acid (2H-tetrazol-5-yl)-amide], the concentration for half-maximal inhibition (IC50) was found to be 0.453 µM.

Turning to `COc1cc2sc(C(=O)Nc3nnn[nH]3)c(OCC3CCCCC3)c2cc1OC` [Example 21, 3-Cyclohexylmethoxy-5,6-dimethoxy-benzo[b]thiophene-2-carboxylic acid (1H-tetrazol-5-yl)-amide], the IC50 came out at 0.195 µM.

For the compound `COc1cc2sc(C(=O)Nc3nn[nH]n3)c(OC3CCCCC3)c2cc1OC` [Example 22, 3-Cyclohexyloxy-5,6-dimethoxy-benzo[b]thiophene-2-carboxylic acid (2H-tetrazol-5-yl)-amide], the IC50 came to 0.034 µM.

For the compound `COc1cc2sc(C(=O)Nc3nn[nH]n3)c(OC3CCC(C(C)(C)C)CC3)c2cc1OC` (centres unmarked) [Example 23, 3-(4-tert-Butyl-cyclohexyloxy)-5,6-dimethoxy-benzo[b]thiophene-2-carboxylic acid (2H-tetrazol-5-yl)-amide], the IC50 was found to be 0.056 µM.

The record behind these values is US20050020630A1, “Cycloalkyl and heterocycloalkyl substituted benzothiophenes as therapeutic agents” (priority 2003, published 2005).
